{"source": "patent US20070140979A1", "about": "“Method for accelerating the rate of mucociliary clearance” (BAYER AKTIENGESELLSCHAFT, priority 1998, published 2007)", "molecules": {"B1": {"name": "Bikunin: Bikunin (SEQ ID NO: 52), two Kunitz domain human homologue of bovine aprotinin, used in airway and HBE studies (protein, listed as Homo sapiens)", "chain": "ADRERSIHDFCLVSKVVGRCRASMPRWWYNVTDGSCQLFVYGGCDGNSNNYLTKEECLKKCATVTENATGDLATSRNAADSSVPSAPRRQDSEDHSSDMFNYEEYCTANAVTGPCRASFPRWYFDVERNSCNNFIYGGCRGNKNSYRSEEACMLRCFRQQENPPLPLGSK"}, "B2": {"name": "Recombinant Bikunin: fragment of placental bikunin containing both Kunitz domains (1-170), expressed in baculovirus/Sf9 cells (protein)", "chain": "B1 chain"}}, "key": {"[1]": {"experiment": "Isoelectric point by isoelectric focusing", "type": "physicochemical", "details": "Ampholine PAGplate pH 3.5 to 9.5, refolded purified protein", "protocol": "After staining, the migration distance from the cathodic edge of the gel to the different protein bands was measured. The pI of each unknown was determined by using a standard curve generated by a plot of the migration distance of standards versus the corresponding pI's. […] (Tenstad et al., 1994, Acta Physiol. Scand. 152:33-50)."}, "human plasma kallikrein": {"target": "T1, human plasma kallikrein (Homo sapiens, UniProt P03952)", "T1 construct": "purchased Sigma (St. Louis, Mo.)", "T1 sequence (P03952 391-638 limits assumed)": "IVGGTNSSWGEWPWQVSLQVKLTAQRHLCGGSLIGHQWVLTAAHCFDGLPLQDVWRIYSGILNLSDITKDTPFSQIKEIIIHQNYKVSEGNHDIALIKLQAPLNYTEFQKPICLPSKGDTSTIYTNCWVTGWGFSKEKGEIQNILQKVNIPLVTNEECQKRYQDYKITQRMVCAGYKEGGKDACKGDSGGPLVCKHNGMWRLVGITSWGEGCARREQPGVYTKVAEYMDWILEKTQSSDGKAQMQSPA", "T1 sequence (P03952 20-390 partner limits assumed)": "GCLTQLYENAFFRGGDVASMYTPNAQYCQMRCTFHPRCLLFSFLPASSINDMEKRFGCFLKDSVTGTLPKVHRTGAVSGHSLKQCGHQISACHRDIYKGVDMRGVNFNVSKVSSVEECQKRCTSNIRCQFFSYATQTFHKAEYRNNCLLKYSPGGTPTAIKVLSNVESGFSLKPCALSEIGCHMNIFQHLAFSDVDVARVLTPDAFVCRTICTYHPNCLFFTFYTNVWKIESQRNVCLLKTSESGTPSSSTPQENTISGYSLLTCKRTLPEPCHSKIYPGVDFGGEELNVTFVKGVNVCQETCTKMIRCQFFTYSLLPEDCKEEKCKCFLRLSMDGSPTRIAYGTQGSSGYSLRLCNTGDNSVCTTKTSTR", "experiment": "Inhibition of human plasma kallikrein, Ki", "type": "biochemical", "details": "for Potency as inhibitor of plasma kallikrein compared with aprotinin (Trasylol), in words: in vitro", "protocol": "Proteases. Bovine trypsin, human plasmin, and bovine pancreatic kallikrein quantitation was carried out by active site titration using p-nitrophenyl p′-guanidinobenzoate HCl as previousl) described (Chase, T., and Shaw, E., (1970) Methods Enzmol. 19, 20-27). […] Human tissue kallikrein (Bayer, Germany) quantification was carried out by active site titration using p′nitrophenyl p′-guanidinobenzoate HCl as previously described (Chase, T., and Shaw, E., (1970) Methods Enzmol. 19, 20-27).\nAfter 5 min. at 37° C., 15 μl of 2 mM GPK-AMC was added and the change in fluorescence (as above) was monitored. […] After 5 min. incubation at 37° C., 25 μl of 20 mM GPK-AMC was added and the change in fluorescence monitored. […] After 5 min. at 37° C. 15 μl of 20 mM PFR-AMC was added and the change in fluorescence monitored."}, "guinea pig trachea": {"system": "guinea pig trachea", "experiment": "Tracheal mucus velocity (TMV) in the guinea-pig", "type": "in vivo", "details": "10 mM x 20 mins aerosol, 15 minutes after aerosol", "protocol": "[…] […] The procedure used in this Example is described in Newton et al. in “Cila, Mucus and Mucociliary Interactions,” Ed., Baum, G. L. et al., Marcel Dekker, New York, 1998; Newton et al., Ped. Pulm. S17, Abs. 364, 998).\nA Bikunin formulation (50 ug/mL Bikunin (SEQ ID NO: 52) was prepared in HBBS containing 137 mM NaCl, 3 mM KC1, 3 mM KH2PO4, 8 mM Na2HPO4, 0.2% Tween-80, pH 7.1). The formulation was sterile filtered and endotoxin tested prior to use in this example. HBSS was used as a control solution. Hypnorm® (Fentanyl citrate 0.315 mg/mL and Fluanisone 10 mg/mL) was obtained from Janssen Animal Health and Hypnovel® (Midazolam 5 mg/mL) was obtained from Roche. Male Dunkin-Hartley guinea pigs (550-750 g) were supplied by David Hall, UK. Thermistor probes were obtained from Kane-May Ltd, UK. […]\nTMV was monitored using a lead collimated miniature Beta particle detector probe arranged to detect the radioactivity emitted from an injected aliquot of ^32P-labelled Saccharomyces cerevisiae as it was transported on the tracheal mucociliary layer of an anaesthetized guinea pig (Newton and Hall 1998) FIG. 16(a) illustrates the arrangement of the syringe and beta probe. FIG. 16(b) illustrates the counts detected by the probe as the ^32P-labelled S.cerevisiae is transported along the tracheal mucociliary layer. […]\n[…] TMV was monitored immediately and every 15 minutes for 30 minutes. […]"}, "diseased patients": {"system": "diseased patients", "details": "inhalation; Robinson et al 1997, App et al 1990; cited from earlier work"}, "[2]": {"system": "Xenopus kidney epithelial cells (A6 cells)", "details": "exposure of the apical membrane, Vallet et al 1997, Chraibi et al 1998, cited from earlier work"}, "[3]": {"system": "human bronchial epithelial cell (HBE)", "experiment": "Short circuit current (Isc) of cultured human bronchial epithelial cells in Ussing chambers", "type": "cell-based", "details": "for Sodium current: 70 nM", "description": "Tertiary HBE cell monolayers grown to confluence were mounted in modified Ussing chambers, immersed in Krebs buffer (KBR) solution and bubbled with 95% 02/5% C02 warmed to 37 C.\nCells were left to equilibrate for 20 minutes before calibrating for background noise and fluid resistance. Transepithelial potential difference was then clamped to 0 mV using a WPI EVC 4000 voltage clamp. Ag/AgCl electrodes were used to monitor Isc. […] Once a response to amiloride was seen, it was washed out with KBR solution. […] 90 minutes following agent treatment, amiloride (10 uM) was added. Once the current was stable forskolin (10 uM in PBS) and then bumetanide (100 uM in PBS) was added.\nCells were left to equilibrate for 20 minutes before calibrating for background noise and fluid resistance. Transepithelial potential difference was then clamped to 0 mV using a WPI EVC 4000 voltage clamp. Ag/AgCl electrodes were used to monitor Isc. […] Once a response to amiloride was seen, it was washed out with KBR solution. […] 90 minutes following agent treatment, amiloride (10 uM) was added."}, "allergic sheep": {"system": "allergic sheep", "details": "cited from earlier work"}, "[4]": {"system": "human bronchial epithelial cell (HBE)", "details": "1.5 μg.ml−1 (70 nM), normal HBE cells; McAulay et al 1998; cited from earlier work"}}, "note": "Like-named read-outs stand apart in the source and are kept apart here.", "data": [{"molecule": "CC[C@H](C)[C@@H]1NC(=O)[C@H](Cc2ccccc2)NC(=O)[C@H](CC(N)=O)NC(=O)[C@H](CC(N)=O)NC(=O)[C@@H]2CSSC[C@@H]3NC(=O)[C@H](C)NC(=O)[C@H](CCC(=O)O)NC(=O)[C@H](CCC(=O)O)NC(=O)[C@H](CO)NC(=O)[C@H](CCCNC(=N)N)NC(=O)[C@H](Cc4ccc(O)cc4)NC(=O)[C@H](CO)NC(=O)[C@H](CC(N)=O)NC(=O)[C@H](CCCCN)NC(=O)[C@H](CC(N)=O)NC(=O)CNC(=O)[C@H](CCCNC(=N)N)NC(=O)[C@H](CSSC[C@H](NC(=O)[C@@H]4CCCN4C(=O)CNC(=O)[C@H]([C@@H](C)O)NC(=O)[C@H](C(C)C)NC(=O)[C@H](C)NC(=O)[C@H](CC(N)=O)NC(=O)[C@H](C)NC(=O)[C@H]([C@@H](C)O)NC(=O)[C@@H](NC(=O)[C@H](Cc4ccc(O)cc4)NC(=O)[C@H](CCC(=O)O)NC(=O)[C@H](CCC(=O)O)NC(=O)[C@@H](N)Cc4ccc(O)cc4)CSSC[C@@H](C(=O)N[C@@H](Cc4ccccc4)C(=O)N[C@@H](CCCNC(=N)N)C(=O)N[C@@H](CCC(N)=O)C(=O)O)NC(=O)[C@H](CCCNC(=N)N)NC(=O)[C@H](CC(C)C)NC(=O)[C@H](CCSC)NC3=O)C(=O)N[C@@H](CCCNC(=N)N)C(=O)N[C@@H](C)C(=O)N[C@@H](CO)C(=O)N[C@@H](Cc3ccccc3)C(=O)N3CCC[C@H]3C(=O)N[C@@H](CCCNC(=N)N)C(=O)N[C@@H](Cc3c[nH]c4ccccc34)C(=O)N[C@@H](Cc3ccc(O)cc3)C(=O)N[C@@H](Cc3ccccc3)C(=O)N[C@@H](CC(=O)O)C(=O)N[C@@H](C(C)C)C(=O)N[C@@H](CCC(=O)O)C(=O)N[C@@H](CCCNC(=N)N)C(=O)N[C@@H](CC(N)=O)C(=O)N[C@@H](CO)C(=O)N2)NC(=O)CNC(=O)CNC(=O)[C@H](Cc2ccc(O)cc2)NC1=O", "note": "[Bikunin (102-159)]", "values": [{"measurement": "pI", "setting": "[1]", "result": 8.3}, {"measurement": "Ki", "setting": "human plasma kallikrein; Kallikrein ([…] nM), Table 4B", "result": 7, "unit": "nM"}, {"measurement": "Potency as inhibitor of plasma kallikrein compared with aprotinin (Trasylol), in words", "setting": "human plasma kallikrein", "result": "significantly more potent"}]}, {"molecule": "N=C(N)NC(=O)c1nc(Cl)c(N)nc1N", "note": "[amiloride]", "values": [{"measurement": "TMV after aerosol", "setting": "guinea pig trachea", "result": "statistically significant increase"}, {"measurement": "MCC in diseased patients", "setting": "diseased patients", "result": "significantly increase"}]}, {"molecule": "Aprotinin", "values": [{"measurement": "Transepithelial Na+ transport", "setting": "[2]", "result": "reduce"}, {"measurement": "Transepithelial Na+ transport", "setting": "[2]; listed as aprotinin", "result": "reduced"}, {"measurement": "Sodium short circuit current", "setting": "[3]; 5 ug/mL, FIG. 20", "result": "decrease"}]}, {"molecule": "Des Pro2-Ser10-Arg15-Asp24-Thr26-Glu31-Asn41-Glu53-Aprotinin [Aprotinin double mutein]", "values": [{"measurement": "Sodium short circuit current", "setting": "[3]; 0.5 to 5 ug/mL, 90 minute period", "result": "dose dependently inhibited"}, {"measurement": "Sodium short circuit current", "setting": "[3]; 0.5 to 5 ug/mL, 90 minute period, listed as aprotinin double mutein", "result": "decrease"}]}, {"molecule": "α1-PI: serpin-family serine protease inhibitor alpha(1)-protease inhibitor", "values": [{"measurement": "Antigen-induced reduction in TMV", "setting": "allergic sheep; 10 mg, 30 min before or 1 h after antigen challenge, 6 h after challenge", "result": "attenuated"}, {"measurement": "Baseline TMV", "setting": "allergic sheep; administered on its own (no antigen challenge), over a 6 h period", "result": "no effect"}, {"measurement": "Antigen-induced fall in TMV", "setting": "allergic sheep; given 6 h after antigen challenge, at 24 h after challenge", "result": "significant reversal"}, {"measurement": "Effect on Na+ Isc", "setting": "[3]; 50 μg.ml−1, normal HBE cells, further study", "result": "without a significant effect"}]}, {"molecule": "B1", "values": [{"measurement": "Inhibition of Na+ Isc", "setting": "[4]", "result": 54, "unit": "%"}, {"measurement": "Sodium current", "setting": "[3]; 90 minute period", "result": "decreases"}, {"measurement": "Sodium current", "setting": "[3]; 90 minute period, listed as Bukinin", "result": "inhibited"}, {"measurement": "Inhibition of Na+ Isc", "setting": "[3]; 5 μg.ml−1, normal HBE cells, further study", "result": 84, "unit": "%"}, {"measurement": "Sodium short circuit current", "setting": "[3]; 5 ug/mL, FIG. 20", "result": "decrease"}]}, {"molecule": "B2", "values": [{"measurement": "Potency as inhibitor of plasma kallikrein compared with aprotinin (Trasylol), in words", "setting": "human plasma kallikrein", "result": "more potent"}, {"measurement": "Potency as inhibitor of plasma kallikrein compared with aprotinin (Trasylol), in words", "setting": "human plasma kallikrein; listed as bikunin(1-170)", "result": "significantly more potent"}]}]}
